Experimental data published in patent US20250163456A1, “AGENT FOR ENHANCING PRODUCTION OF VIRAL VECTOR AND METHOD FOR PRODUCING VIRAL VECTOR” (priority 2022, published 2025).

Test system: HEK293 cells
Test: Evaluation of AAV vector-producing ability by treatment with chemical substance (rAAV1 virus titer by qPCR)
Format: cell-based, human
Settings: HEK293 cells producing rAAV1, serum-free E-MEM with chemical substance at various concentrations, 3 days culture, virus titer (v.g.) vs untreated control
Procedure: The cells of the immortalized cell line derived from the human embryonic kidney (HEK293 cells) purchased from ATCC (American Type Culture Collection) were cultured in E-MEM supplemented with 10% fetal bovine serum, penicillin, and streptomycin at 37° C. in the presence of 5% CO2.
The recombinant adeno-associated virus 1 (rAAV1) was prepared with the use of 3 types of plasmids: pAAV-ZsGreen1 (TaKaRa Bio), pAAV2/1, and pHelper. A mixture of 3 types of plasmids for preparation of rAAV1 was adjusted to bring the mixing ratio of DNA to Polyethylenimine Max (PEI:Polysciences) (DNA:PEI) to 1:2 in OPTI-MEM, and the reaction was allowed to proceed at room temperature for 15 minutes. […]
Genome DNA of rAAV1 was extracted to measure the virus titer. […] The virus titer was measured by real-time PCR in triplicate. qPCR was performed using primers targeting Zs-Green 1. […]
In the present example, effects of enhancing production of AAV vectors achieved with the use of chemical substances different from the chemical substances tested in Example 1 were measured in the same manner as in Example 1.
In the present comparative example, effects of enhancing production of AAV vectors were measured in the same manner as in Example 1, except for the use of ascorbic acid (2.5, 5, or 10 μg/ml) disclosed in the examples of WO 2021/138387. […]

O=C1O[C@H]([C@@H](O)CO)C(O)=C1O [ascorbic acid]
effects of enhancing the amount of production of AAV vectors: no significant differences were observed
